Test results from publication PMC2851732, “Peptide Inhibitors of Dengue-Virus Entry Target a Late-Stage Fusion Intermediate” (PLoS Pathogens, 2010).
Ends that are not written are not given here.

Biological target: T1, DV2 sE(1–395) postfusion trimer (Dengue virus type 2, UniProt P12823)
T1 construct: The sE component (residues 1–395) of the ectodomain is in ribbon representation; purchased Hawai'i Biotech
Assay: Fluorescence polarization binding of FITC-tagged stem peptides to postfusion sE trimer
Set-up: species or system dengue virus serotype 2

Sequence | IC50
AILGDTAWDFGSLGGVFTSIGKA [DV2^413-435] | 2000 nM
AILGDTAWDFGSLGGVFTSIGKALHQVF [DV2^413-440] | 250 nM
AWDFGSLGGVFTSIGKALHQVF [DV2^419-440] | 250 nM
